Test results from PubChem BioAssay AID179 (DTP/NCI, 2004).
The source made the active and inactive calls.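 How the source made its calls: active means compounds giving half or more protection of infected cells from virus-caused growth loss, again on retest; inactive means the rest.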 Where a SMILES comes first, the peptide text is derived from it. [ ]: non-standard residue; d: D form. The star is where a group is joined. NMeF = CN[CH](Cc1ccccc1)C(=O)O; NMeV = CN[CH](C(=O)O)C(C)C; Boc = CC(C)(C)OC(=O)*

Test system: CEM cells HIV-1 protection, formazan growth assay
Experiment: NCI AIDS Antiviral Assay
Conditions: for IC50: measured here: growth of uninfected CEM cells
Protocol: The ability of compounds to protect human CEM cells from HIV-1 infection is measured as a screen for new compounds capable of inhibiting the HIV virus. Five concentrations of drug were tested on uninfected and infected cells and cell growth was measured using a soluble formazan assay. […] Compounds that provided at least 50% protection were retested. Compounds that provided at least 50% protection on retest were listed as moderately active. Compounds that reproducibly provided 100% protection were listed as confirmed active. […] Note that the inability to provide protection could be due to toxicity.

Structure (SMILES)	EC50 [µM]	IC50 [µM]	outcome
COc1cc2c(c([N+](=O)[O-])c1)NC(=O)CC(C)S2 (stereo unspecified)	95.5	148	
CCOC(=O)/C(=C/c1ccc(Cl)cc1)N(CC)CC	> 126	> 126	
N=c1oc2ccc3ccccc3c2cc1-c1nc2ccccc2c(=O)[nH]1	> 50.1	7.24	
Cc1cccc(C)c1NC(=O)CCC(=O)NC(N)=NC#N	> 457	> 457	
O=C(Nc1ccc(/C=C/c2ccc(NC(=O)c3ccc(N=Nc4cc(S(=O)(=O)O)c5cccnc5c4O)cc3)cc2S(=O)(=O)O)c(S(=O)(=O)O)c1)c1ccc(N=Nc2cc(S(=O)(=O)O)c3cccnc3c2O)cc1	17.8	> 100	
O=C(O)C1=CC=CC(=C(c2ccc(O)c(C(=O)O)c2)c2ccc(O)c(C(=O)O)c2)C1=O	> 380	> 380	
CCOC(=O)NC(=S)NC(C)c1ccccc1 (stereo unspecified)	> 200	115	
O=C(Nc1cccc(C(F)(F)F)c1)c1cc(Br)cc(Br)c1O	> 200	1.51	
NC(N)=NS(=O)(=O)c1ccc(NNC(=O)c2cccc3c(=O)c4ccccc4[nH]c23)cc1	> 200	33.9	
O=c1cc(-c2ccccc2)oc2c(O)c(O)cc(O)c12	> 186	> 186	
COc1ccccc1C1c2cc3c(cc2OC2(OC)COC(=O)C12)OCO3 (stereo unspecified)	> 200	10.2	
CSCCC(NCc1c(O)ccc2c(-c3ccccc3)cc(=O)oc12)C(=O)O (stereo unspecified)	> 200	> 200	
CN(C)CCC(=O)C(=Cc1ccc(O)cc1)C(=O)CCN(C)C	> 646	43.7	
COc1c(N2CCCCC2)c2c(=O)c3ccccc3oc2c2cc(C)oc12	> 200	11.2	
CCN(CC)CCNC(=O)C1COc2ccc(-c3cc(=O)c4ccccc4o3)cc2O1 (stereo unspecified)			inactive
Cc1ccc(S(=O)(=O)C(C#N)c2nc3ccccc3nc2-n2cccn2)cc1 (stereo unspecified)	> 200	126	
O=C(c1ccccc1)C(C(=O)c1ccccc1)C1(O)C(=O)c2ccccc2C1=O			inactive
Oc1c(N2CCCCC2)cc(-c2cc(N3CCCCC3)c(O)c3ccccc23)c2ccccc12	> 200	30.2	
Clc1cc2cc3c(Br)coc3nc2cc1Cl	> 16.2	> 16.2	
CC1OC(OC2C(O[C@@H]3C[C@@H]4CC[C@@H]5[C@H](CC[C@]6(C)[C@@H]7[C@H](C[C@@H]56)O[C@]5(CC[C@@H](C)CO5)[C@H]7C)[C@@]4(C)C[C@H]3O)OC(CO)C(OC3OC(CO)C(O)C(O)C3O)C2O)C(O)C(O)C1O (stereo partly specified)	> 10	1.82	
CC(C)c1nc2cc(C(F)(F)F)ccc2[nH]c1=O	> 200	120	

Structure (SMILES)	EC50 [µM]	IC50 [µM]	outcome
CCOC(=O)C(NC(=O)c1ccccc1)[CH](c1ccc(OC)cc1)[Sn]([c]1ccccc1)([c]1ccccc1)[c]1ccccc1 (stereo unspecified)	34.7	81.3	
COc1ccccc1NC(=O)/C(=C/c1ccccc1)C(C)=O	> 24.5	18.6	
C=CC1C(OC2OC(CO)C(O)C(O)C2O)OC=C(C(=O)OC)C1CC=O (stereo unspecified)	> 646	> 646	
COc1ccc(/C=[N+](\[O-])[C@H](COCc2ccccc2)c2ccccc2)cc1	> 72.4	> 72.4	
O=C1CSC(=S)N1Cc1ccncc1	> 200	4.27	
COC1/C=C/OC2(C)Oc3c(C)c(O)c4c(O)c(c(/C=N/N5CCCN(C)CC5)c(O)c4c3C2=O)NC(=O)/C(C)=C\C=C\C(C)C(O)C(C)C(O)C(C)C(OC(C)=O)C1C (stereo unspecified)	> 200	89.1	
CCOC(=O)c1nc(SC)sc1NC(=O)c1ccccc1[N+](=O)[O-]	195	> 200	
CCOC(=O)/C(=C\c1ccc(-c2ccccc2)cc1)C(C)=O	> 45.7	> 45.7	
CC(=O)Nc1ccccc1C[P+](c1ccccc1)(c1ccccc1)c1ccccc1	> 200	> 200	
CC(C)(O)[C@@H]1CC[C@@]2(C)CCCC(O)C2(O)C1 (stereo partly specified)			inactive
Cc1cc(NS(=O)(=O)c2ccc(NC(=O)c3cccc4c(Nc5ccc(S(=O)(=O)Nc6cc(C)on6)cc5)c5ccccc5nc34)cc2)no1	> 36.3	> 36.3	
NC(=S)N/N=C\CC(O)(C(F)(F)F)C(F)(F)F	> 200	> 200	
COC(=O)[C@@H](N1C(=O)c2ccccc2C1=O)C1(C)CC(Cl)=NO1 (stereo partly specified)	> 200	> 200	
Cn1cnc([N+](=O)[O-])c1Sc1nc(N)nc2nc[nH]c12	> 200	3.39	
Cc1cc(C)c(-c2noc(-c3ccc(Cl)cc3)c2C2=NCCN2)c(C)c1			inactive
Cc1ccc(S(=O)(=O)Nc2cccc3c(=O)[nH]cnc23)cc1	> 83.2	13.8	
O=C1/C(=C/c2ccccc2)CN(C(=O)OCc2ccccc2)C/C1=C\c1ccccc1			inactive
CCOC(=O)/C=C/c1ccccc1Br	> 38.9	> 38.9	
CN1c2ccccc2Sc2c1n[nH]c2-c1ccccc1	> 49	20.9	
c1ccc(C2=NOC3(c4ccccc4)SC4CCCCC4CN23)cc1 (stereo unspecified)	> 10.7	> 10.7	
NC(=O)c1c2c(cc3c(=O)c4ccccc4[nH]c13)CCCC2			inactive

Structure (SMILES)	EC50 [µM]	IC50 [µM]	outcome
C=C1c2nc3ccccc3n2C=C(c2ccccc2)N1c1ccc(C)cc1	> 200	28.2	
CCN(CC)CC(=O)Nc1cc(NC(=O)CN(CC)CC)c(C)c(NC(=O)CN(CC)CC)c1	> 200	56.2	
Cc1nc(=O)n2c(c1C(=O)Nc1ccc(Cl)cc1)NCCC2			inactive
C=C(c1nc2ccc(Cl)cc2[nH]c1=O)C(O)c1ccc(C(O)C(=O)c2nc3ccc(Cl)cc3[nH]c2=O)cc1 (stereo unspecified)	> 162	12	
NC(N)=NNCCOc1c(Cl)cccc1Cl	> 200	91.2	
COc1ccc(-c2cc(-c3cc(C)cc(Br)c3O)no2)cc1	> 200	> 200	
COc1ccccc1NC(=S)N/N=C/c1ccccn1	> 0.2	0.0955	
CC(C)C(NC(=O)OC(C)(C)C)C(=O)N(C)C(Cc1ccccc1)C(=O)N(C)C(C(=O)O)C(C)C (stereo not drawn) (Boc-Val-[NMeF]-[NMeV]-OH; configuration not given here)	> 200	> 200	
N#CCc1nc2c(s1)C(=O)c1ccccc1C2=O	> 7.94	> 7.94	
O=C1C=Cc2ccccc2/C1=C/c1[nH]c(=O)[nH]c1O	> 200	16.2	
CCCCCCCCCCCCCCCC=C(c1cc(Br)c(O)c(C(=O)O)c1)c1cc(Br)c(O)c(C(=O)O)c1	> 112	53.7	
NC(=S)N/N=C/c1ncccc1O	> 12.6	0.794	
COC1CC(C)C(OC)c2cc(O)cc(c2O)NC(=O)/C(C)=C/C=C\C(C)C(OC(N)=O)/C(C)=C\C(C)C1OC (stereo unspecified)	> 170	0.676	
O=C(Nn1cc(F)c(=O)[nH]c1=O)C12CC3CC(CC(C3)C1)C2	> 200	8.91	
CC/C=C(\C(=C/CC)[N+](=O)[O-])[N+](=O)[O-]	> 200	3.31	
c1ccc(N2CC3CSc4ccc5ccccc5c4C3=N2)cc1 (stereo unspecified)	> 200	> 200	
CS(=O)(=O)OCC(CCl)(CCl)CCl	> 933	661	
CCN(CC)CCOCC1CCCN2CCCCC12 (stereo unspecified)	> 200	> 200	
C1=c2ccccc2=C2C(=C(c3ccccc3)C(c3ccccc3)=NN2c2ccccc2)S1	> 4.68	> 4.68	
CC(C)OC(=O)c1cc(NC(=O)C(C)(C)C)c(F)cc1Cl			inactive
O=S1(=O)OCCCO1	> 1820	> 1820	

Structure (SMILES)	EC50 [µM]	IC50 [µM]	outcome
COc1ccc2cc1Oc1ccc(cc1)C[C@H]1c3cc(c(OC)cc3CCN1C)Oc1c(O)c(OC)cc3c1[C@H](C2)N(C)CC3			inactive
O=c1c2ccccc2nc2n1-c1ccccc1SC2	> 97.7	> 97.7	
O=c1c2c(c1=O)C1(SCCCS1)c1cc(Cl)ccc1O2	> 200	> 200	
COC1OC2COC1(OC)C1OC(C)(C)OC21 (stereo unspecified)	> 200	> 200	
Cc1ccc(-c2[nH]c(=O)n(C3OC(CO)C(O)C(O)C3O)c(=O)c2C#N)cc1 (stereo unspecified)	> 200	> 200	
CC(C)CC1[C@@H](OCc2ccccc2)COS(=O)(=O)N1Cc1ccccc1 (stereo partly specified)	> 200	77.6	
c1ccc(Nc2nnc(-c3ccccc3Nc3ccccc3-c3nnc(Nc4ccccc4)s3)s2)cc1	> 200	105	
O=c1oc2ccc([N+](=O)[O-])cc2cc1Br	> 145	> 145	
CCN(CC)c1ccc(N=C2C=CC(=C(C#N)C#N)c3ccccc32)c(C)c1			inactive
O=C1OC(c2ccccc2)(c2ccccc2)CC1CN1CCOCC1 (stereo unspecified)	> 57.5	12	
Cc1ccc(C(=O)N(C(C)C)C(C)C)cc1N=NN(C)C	> 123	97.7	
NC(N)=NS(=O)(=O)c1ccc(NC(=O)c2cccc3c(NNc4ccc(C(=O)O)cc4)c4ccccc4nc23)cc1	> 200	33.9	
CN=C1N[N+]2=CCSCC2(C)S1 (stereo unspecified)			inactive
Cc1ncc(CO)c(CO)c1S	> 200	> 200	
CCC(C)C(NC(=O)C(CCC(=O)O)NC(=O)C(CCCCN)NC(=O)C(CO)NC(=O)C(CC(C)C)NC(=O)C(Cc1ccc(O)cc1)NC(=O)C(C)N)C(=O)NC(C)C(=O)NC(CO)C(=O)NC(CC(=O)O)C(=O)O (stereo unspecified) (H-AYLSKEIASD-OH; configuration not given here)	> 29.5	> 29.5	inactive
C=CC[C@]12CC[C@H](O)[C@@]1(C)CCC(=O)/C2=N\N			inactive
CC(=O)N/N=C1/CC[C@@]2(C)C(=CC[C@H]3C4CCC(C(C)CCCC(C)C)[C@@]4(C)CCC32)C1(C)C (stereo partly specified)	> 200	61.7	
O=c1c(Br)cc2nc3ccccc3sc-2c1Br	> 10	> 10	
